Assays:
[1] = Surface energy components by IGC with the PSP/LSER method; assay type: physicochemical; details: for γd (dispersion component of surface energy): IGC, Dorris–Gray method, amorphous drug, 30 °C; for γhb (hydrogen-bonding surface energy component) / γa (acidic surface energy component) / γb (basic surface energy component) / γtot (total surface energy): PSP/LSER method; for γa (acidic surface energy component) / γb (basic surface energy component): Equation (27), unit assumed; for γtot (total surface energy): Equation (36)
Method: (§1) Inverse gas chromatography (IGC) was used to analyze solid samples packed into a chromatographic column as stationary phase. The equipment was a surface energy analyzer (iGC-SEA) from Surface Measurement Systems Ltd. (London, UK) and about 200 mg of each drug was inserted into silanized glass columns (3 mm inner diameter) by employing a standardized packing method with silanized glass wool that was used at both ends of the column as fixation. Prior to each measurement, the samples were conditioned for 1 h at 30 °C with dry helium with 0% relative humidity at a flow rate of 15 standard cubic centimeters per minute (sccm). Dead volume of the system was determined by injecting the inert probe methane prior and after each measurement. This stationary phase was flushed with an inert carrier gas—helium in the present study. Measuring conditions were the same as applied for sample conditioning, except for a flow rate of 10 sccm that was used. For all experiments, a relative surface coverage of 5% was selected.
The PSP framework can also be used for the estimation of the surface energy components of the studied drugs. However, there are practically no data on the total surface energies of drugs available in the literature. Instead, the dispersion components, γd, were determined by the Dorris–Gray method. This dispersion component is practically equivalent to our nonhydrogen-bonding component, γVES. Thus, we may use Equation (29) in the equivalent form of Equation (36) and obtain the total surface energy of the drugs, γtot: (36) γtot=γd3.1Vx+E+S+2AB/3.1Vx+E+S.
In a similar manner, the acidity and basicity components of the surface energy are obtained from Equation (27).

[2] = Cohesive energy (solubility-parameter) components by the PSP/LSER method
[3] = LSER descriptors by PSP approach from experimental inverse gas chromatography (IGC) data; assay type: physicochemical; details: initial or tentative estimates; for A (PSP): LSER acidity descriptor; for B (PSP): LSER basicity descriptor; for S (PSP): LSER polarity descriptor
Method: as §1
The extent of interactions between the solid phase of interest and the probe gas is obtained by the net retention volume VN:(31) VN=j/mF(tR−t0)T/273.15, where T is the column temperature, F is the carrier gas flow rate at 1 atm and 273.15 K, m is the sample mass, tR is the retention time of the absorbed probe gas and t0 is the mobile phase hold up time, and finally, j represents the James–Martin correction (that adjusts retention time for the pressure drop effect in the column bed). The calculated retention volume VN is then used to estimate the mass activity coefficient, Ω at infinite dilution:(32) ln(Ω)=ln(273.15R/p0M1VN)−p0(B11−V1)/RT, where po is the saturation pressure and M is the molecular mass, while B11 is the second virial coefficient and V1 holds for molar volume of the probe gas. Conversion of the mass activity coefficient Ω to mole fraction activity coefficient γ (at infinite dilution) is done via the following equation:(33) lnγ1res,∞=ln(Ω1M1/M2)−(lnr1/r2+1−r1/r2)=r1χ12. and provided the basis for further thermodynamic analysis, as described in the Results section.
The PSP approach was used to characterize the studied drugs, that is, to determine their LSER descriptors from the experimental IGC data. The McGowan volume, Vx, is an atom-specific quantity and, thus, it is obtained either from the ACD software or from the freely accessible database via their SMILES form. […].
A and B descriptors were then obtained from IGC data with hydrogen-bonding probes (acidic, like chloroform, basic, like acetone, and homosolvated, like ethanol) correlated with Equation (34).

[4] = Residual solid XRPD analysis after solubility equilibration in solvents; assay type: physicochemical; details: 24 h equilibration at room temperature in solvent
Method: All experiments were performed in triplicate. The drug concentration in the solvent bulk phase was determined simultaneously with a residual solid analysis of the drug by means of XRPD to detect possible solvent-mediated phase changes. Such residual solid analysis has been published before for a different miniaturized assay. […] The closed vials were equilibrated for 24 h by magnetic stirring at room temperature. […] An isocratic flow of a mixture of solvent A and solvent B was initially applied for 0.3 min at a flow rate of 0.75 mL/min. […] Table 1 summarizes the experimental conditions (initial composition of mobile phase, detection wave length) used for the different drugs. For solid state analysis, approx. 10-20 mg of the residual wet solids was manually transferred into a 96-well MultiScreen® Solubility Filter Plate (Millipore, Bedford, MA, USA) by a spatula. The filter plate was immediately sealed with adhesive acetate foil for microtest well plates (Sarstedt Inc., Newton, NC, USA) to minimize solvent evaporation. Solid state analysis of residual solids was based on a high-throughput XRPD method using a […] […] Samples were analyzed directly in the 96-well filter plate with an exposure time of 5 min per well.

[5] = Differential scanning calorimetry (enthalpy of fusion); assay type: physicochemical; details: DSC, 10 °C/min, triplicate
Method: Differential scanning calorimetry (DSC) thermograms were obtained using a DSC 1 instrument from Mettler-Toledo AG (Greifensee, Switzerland). The instrument was calibrated for temperature and enthalpy using indium. Nitrogen was used as protective gas (150 mL/min). Samples (2–3 mg) were placed in 40 μL aluminum pans with pierced aluminum lids (Mettler-Toledo AG, Greifensee, Switzerland). The melting onset temperature (Tm) and the enthalpy of fusion (ΔHf) were determined by heating the samples at 10 °C/min from 25 °C to a maximum temperature of 300 °C. All DSC measurements were carried out in triplicate.

| γd (dispersion component of surface energy) [1] | γhb (hydrogen-bonding surface energy component) [1] | γa (acidic surface energy component) [1] | γb (basic surface energy component) [1] | γtot (total surface energy) [1] | σGa (acidity PSP) [2] | σGb (basicity PSP) [2] | σd (dispersion PSP) [2] | σhb (hydrogen-bonding PSP) [2] | σp (polarity PSP) [2] | A (PSP) [3] | B (PSP) [3] | S (PSP) [3] | ΔH^m (heat of fusion) [5] | σtot (square root of total cohesive energy density, equivalent to δtot) [2] | SMILES | Residual solid form after solubility equilibration (XRPD) [4] |
| --- | --- | --- | --- | --- | --- | --- | --- | --- | --- | --- | --- | --- | --- | --- | --- | --- |
| 47.83 mJ/m^2 | 5.13 mJ/m^2 | 1.51 mJ/m^2 | 4.37 mJ/m^2 | 52.96 mJ/m^2 | 3.92 MPa^0.5 | 6.68 MPa^0.5 | 19.75 MPa^0.5 | 8.14 MPa^0.5 | 9.91 MPa^0.5 | 0.50 | 1.45 | 3.19 | 11.32 ± 0.0884 kcal/mol |  | COc1ccccc1OCCNCC(O)COc1cccc2[nH]c3ccccc3c12 (stereo not shown) [Carvedilol, carvedilol] | a changed solid form in dichloromethane after equilibration |
| 49.43 mJ/m^2 | 5.64 mJ/m^2 | 1.64 mJ/m^2 | 4.85 mJ/m^2 | 55.07 mJ/m^2 | 4.03 MPa^0.5 | 6.94 MPa^0.5 | 19.60 MPa^0.5 | 9.01 MPa^0.5 | 10.33 MPa^0.5 | 0.71 | 2.1 | 4.66 | 4.68 ± 0.406 kcal/mol | 23.92 MPa^0.5 | COc1cc(C(=O)NS(=O)(=O)c2ccccc2C)ccc1Cc1cn(C)c2ccc(NC(=O)OC3CCCC3)cc12 [Zafirlukast, zafirlukast] | at least one different solid form following equilibration |
